Experimental data as given in patent US10772863B2, “Methods of inducing metabolic maturation of human pluripotent stem cells— derived hepatocytes” (priority 2016, dated 2020).
“And” between values parts separate entries of the source, which are not always exact repeats. Equal entries are not always repeated. “Also recorded” adds a separate entry of the source. Where two headings read alike, the source gives them in different places.

What was measured:
[1] = tested on: hESC-derived hepatocytes; format: cell-based, human; conditions: LA replaced with 9CLA, with 100 μM OA
[2] = tested on: PXR and its CYP2C9 and CYP3A4 target genes
[3] = biological target: PXR (Homo sapiens, UniProt O75469); format: cell-based
Description: (§1) Cultured cells were fixed using 4% paraformaldehyde for 15 minutes at room temperature. […] Following washes, cells were incubated with secondary antibodies for 1 hour at room temperature in blocking buffer (Table 10, hereinbelow). Hoechst staining was performed using bisBenzimide H33342 for 2 minutes. Imaging was performed on a Zeiss LSM 700 confocal microscope.

[4] = tested on: LCA- and MK4-treated hESC-derived hepatocytes
Description: Cultured cells were exposed to different concentrations of compounds dissolved in culture medium for 24 hours at 37° C. Cell viability was determined utilizing LIVE/DEAD Cytotoxicity kit (Molecular Probes, Eugene, Oreg.) according to manufacturer instructions. In brief, cultures were incubated with 2 μM Calcein AM and 3 μM ethidium homodimer-1 for 25 minutes. Hydrolysis by functional intracellular esterases causes live cells to fluoresce green, while the punctured membranes of dead cells permit ethidium homodimer-1 to bind DNA and fluoresce red. Cellular viability was calculated by live to dead ratio and normalized to negative control. TC50 values were quantified using GraphPad Prism software (La Jolla, Calif.).
Differentiation was adapted to 96-well plates (General Materials and Experimental Methods above). Cells were exposed to increasing concentrations of compounds on day 16, and viability was quantified using fluorescence Live/Dead staining after 24 hours of exposure (FIG. 4D).

[5] = tested on: hESC-derived hepatocytes; conditions: human, 24 h
Description: Quantification of intracellular lipids was performed using LipidTOX™ Green Neutral Lipid Stain (Molecular Probes). […] Staining intensity was normalized to negative control. […] Incubation media was removed and cultures washed with ice-cold PBS containing calcium and magnesium. The number of green CDF particles was normalized to the number of Hoechst nuclei as an indicator of functional bile canaliculi. Particle and nuclei counting was performed utilizing the ImageJ particle analyzer.

[6] = tested on: hESC-derived hepatocytes
Description: Toxicological endpoints were evaluated for nine hepatotoxic compounds at TC20 values identified above. Quantitation of apoptotic cells was performed utilizing DeadEnd™ fluorometric TUNEL System (Promega, Madison, Wis.) according to manufacturer instructions. […] Cell were permeabilized and exposed to fluorescein-12-dUTP and terminal deoxynucleotidyl transferase (TdT), dying apoptotic nuclei green. The reaction was subsequently stopped and the cells counterstained for DAPI. A percent apoptotic nucleus was calculated by dividing the number of TUNEL to DAPI positive nuclei.

[7] = tested on: CYP450 (CYP1A, CYP3A4, CYP2C9); conditions: human, 72 h
Description: CYP1A activity was evaluated utilizing EROD (ethoxyresorufin-o-deethylase) as previously described (Behnia, 2000). […] Briefly, cultures were incubated with 100 μM BFC (7-benzyloxy-4-trifluoromethylcoumarinat), or 10 μM MFC (7-methoxy-4-trifluoromethylcoumarin) for 1 hour at 37° C. Supernatant samples were collected every 30 minutes for 2.5 hours. The reactions were stopped by collection of the incubation medium. Metabolite conjugates formed via phase II activity were hydrolyzed by incubation of medium samples with β-glucuronidase/arylsulfatase for 2 hours at 37° C. Samples were diluted 1:1 in quenching solution and HFC (7-hydroxy-4-trifluoromethylcoumarin), the respective fluorescent metabolite formation, was measured at the appropriate wavelengths (410/510) and normalized to total protein determined by Bradford.
CYP450 activity was quantified as described above at the end of the stimulation period.

[8] = tested on: hESC-derived hepatocytes; assay: qRT-PCR of nuclear receptors, lipid metabolism, albumin and mitochondrial genes after fatty acid treatment; format: cell-based, human
[9] = tested on: hESC-derived hepatocytes; assay: HSP60 immunofluorescence and CellProfiler analysis of mitochondrial network; format: cell-based, human
Description: as §1

[10] = tested on: hESC-derived hepatocytes; assay: Albumin, AFP and ApoB100 production (ELISA); format: cell-based, human; conditions: cells treated with OA and LA; 24-hours treatment with GW9662
Description: Culture media samples were collected daily and stored at −80° C. Albumin and AFP concentrations were analyzed using Human Albumin ELISA quantitation set (Bethyl laboratories, Montgomery, Tex.) and Human AFP (alpha-fetoprotein) Quantikine ELISA kit (R&D Systems, Minneapolis, Minn.), according to manufacturer directions. […] Data was normalized to total cellular protein utilizing the Bradford assay.

[11] = tested on: hESC-derived hepatocytes; format: cell-based, human; conditions: 50 μM LCA

Chain of PXR (O75469 whole entry): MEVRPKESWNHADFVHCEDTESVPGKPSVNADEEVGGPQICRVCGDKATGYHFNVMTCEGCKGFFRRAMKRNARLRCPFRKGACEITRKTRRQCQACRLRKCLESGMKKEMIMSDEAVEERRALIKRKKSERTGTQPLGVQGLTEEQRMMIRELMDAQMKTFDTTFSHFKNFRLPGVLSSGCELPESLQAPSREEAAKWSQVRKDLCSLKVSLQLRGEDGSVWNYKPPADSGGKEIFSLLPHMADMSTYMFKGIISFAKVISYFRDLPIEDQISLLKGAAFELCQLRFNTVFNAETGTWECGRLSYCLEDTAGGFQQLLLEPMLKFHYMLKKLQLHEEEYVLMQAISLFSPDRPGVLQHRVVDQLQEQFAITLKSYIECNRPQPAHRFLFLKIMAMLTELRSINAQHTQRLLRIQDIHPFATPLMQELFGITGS

What does the source list for `CCCCCC/C=C/C=C\CCCCCCCC(=O)O` [9CLA, cis-9,trans-11-octadecadienoic acid]?
mitochondrial respiration relative to primary human hepatocytes [1]: 60%; CYP3A4 and CYP2C9 gene expression ([2]; hepatocytes): increased significantly; increase in PXR nuclear localization compared to untreated cells ([3]; 100 μM each, 9CLA replaces LA, with OA): 50%; additional increase in PXR nuclear localization when LA is replaced with 9CLA ([3]; with OA): 30% and 40%

`CC(=O)Oc1ccccc1C(=O)O` [acetylsalicylic acid] was tested. Which “TC20 concentration used for endpoint assays” value (shortened to “TC20 concentration used”) ([4]; human, 24 h) did it give?
Its value is 2000 µM.

And the “increase in intracellular lipids compared to control” value [5]?
Its value is 25-26 fold.

`CCCC(CCC)C(=O)O` [valproic acid] was tested. Which “increase in intracellular lipids compared to control” value [5] did it give?
The value was 25-26 fold.

How did the “TC20 concentration used” value [4] turn out when aflatoxin B1 was run?
The value was 2 µM.

And the “DNA fragmentation compared to control” value [6]?
Its value is “significant increase”.

`OC[C@@H](O)[C@@H](O)[C@H](O)[C@H](O)CO` [mannitol] was tested. Which “toxicity” value [4] did it give?
The value was “no adverse effects”.

For `COc1ccc2[nH]c([S+]([O-])Cc3ncc(C)c(OC)c3C)nc2c1` (centres unmarked) [Omeprazole, omeprazole], which “induction of BFC metabolism” value [7] is on record?
Its value is 3 fold.

What about the “induction of EROD metabolism” value ([7]; 50 μM) of the same compound?
The value was 9 fold.

And the “induction of CYP450 activity” value ([7]; hepatocytes, 50 μM)?
Its value is “preferentially induced CYP1A”.

With `O=C(Nc1ccccc1)c1cc([N+](=O)[O-])ccc1Cl` [GW9662] as the compound, how does the “effect on expression of genes involved in lipid metabolism” value ([8]; 24-hours treatment, OA and LA treated cells) read?
The value was “inhibited”.

What about the “PGC1, MFN2 and FIS1 gene expression” value ([8]; fatty acid treated cells) of the same compound?
Its value is “decrease”.

And the “effect on fatty acid induced elongation and narrowing of mitochondria” value [9]?
The value was “reversed the effect”.

And the “CYP3A4 and CYP2C9 gene expression” value ([2]; fatty acid treated cells)?
The value was “down-regulated”.

What about the “effect on albumin secretion / albumin gene expression and production” value [10] of the same compound?
Its value is “significant decrease; also recorded: blocked”.

And the “effect on PXR nuclear localization” value ([3]; fatty acid treated cells)?
Its value is “down-regulated; also recorded: significant decrease”.

How did the “CYP450 gene expression” value ([2]; human, hepatocytes, 2 %) turn out when `C[S+](C)[O-]` [DMSO, Dimethyl sulfoxide] was run?
The value was “increased expression of all CYP450 enzymes measured”.

And the “increase in expression of PXR and most CYP450 enzymes checked” value ([2]; human, hepatocytes, 2 %)?
Its value is 2-6 fold.

For `CN(C)CCCN1c2ccccc2Sc2ccc(Cl)cc21` [chlorpromazine], which “TC20 concentration used” value ([4]; human, 24 h) is on record?
The value was 45 µM.

What about the “decrease in number of CDF-positive bile canaliculi compared to control” value [5] of the same compound?
Its value is 13-30 fold.

And the “loss of epithelial polarization” value [5]?
The value was 14 fold.

With `O=C(O)Cc1ccccc1Nc1c(Cl)cccc1Cl` [diclofenac] as the compound, how does the “TC20 concentration used” value ([4]; human) read?
The value was 300 µM.

What about the “DNA fragmentation compared to control” value [6] of the same compound?
The value was “significant increase”.

What about the “increase in percent of apoptotic nuclei compared to control” value ([6]; human, 24 h) of the same compound?
The value was 3-4 fold.

For `Cc1c(C)c2c(c(C)c1O)CCC(C)(COc1ccc(CC3SC(=O)NC3=O)cc1)O2` (centres unmarked) [troglitazone], which “TC20 concentration used” value ([4]; human, 24 h) is on record?
Its value is 80 µM.

And the “decrease in number of CDF-positive bile canaliculi compared to control” value [5]?
The value was 13-30 fold.

What about the “loss of epithelial polarization” value [5] of the same compound?
The value was 14 fold.

`CC1CCC(C(C)C)C(O)C1` (centres unmarked) [menthol] was tested. Which “toxicity” value [4] did it give?
The value was “no adverse effects”.

For `C[C@H](CCC(=O)O)[C@H]1CC[C@H]2[C@@H]3CC[C@@H]4C[C@H](O)CC[C@]4(C)[C@H]3CC[C@]12C` [LCA, lithocholic acid], which “toxicity to differentiating cells” value [11] is on record?
Its value is “mild toxicity”.

Which PXR expression induction ([2]; 10 μM, final maturation step) does the source give for `CC(C)=CCC/C(C)=C/CC/C(C)=C/CC/C(C)=C/CC1=C(C)C(=O)c2ccccc2C1=O` [MK4, menaquinone-4] here?
The PXR expression induction was 1.9 fold.

What does the source list for `COc1ccc2[nH]cc(CCNC(C)=O)c2c1` [melatonin]?
toxicity [4]: clear toxicity; TC50 ([4]; human, 24 h): 700 ± 200 µM; increase in intracellular lipids compared to control [5]: 30 fold; intracellular lipid accumulation [5]: significant (P<0.006) increase; effect on cell viability [6]: not affecting
